Measurements published in PubChem BioAssay AID2384 (Southern Research Specialized Biocontainment Screening …, 2010).
Values joined by “and” are separate entries in the source; they are usually repeats but may differ in a detail not shown here. Equal values may be shown once.

test system: S. typhi GFP reporter counter-screen, fluorescence, 4 h; test: inhibitors in S. typhi counter-screen strain, dose response, counter-screen for PhoP regulon inhibitor project, fluorescence, 4 h (AID 2384)

SMILES | IC50
C#CCOCCOCCOCCNc1nc(N2CCN(C(=O)[C@H]([C@@H](C)CC)n3cc([C@@H](N)CO)nn3)CC2)nc(N2CCN(C(=O)[C@H](Cc3cc4ccccc4[nH]3)n3cc([C@@H](N)Cc4ccc(O)cc4)nn3)CC2)n1 | 49.7 µM
N=c1n(CC(=O)c2ccc(Br)s2)c2ccccc2n1Cc1ccccc1 | 27.3 µM
Cc1cccc2sc(N(CCCN(C)C)C(=O)COc3ccc(Cl)cc3)nc12 | 37.6 µM
CCOC(=O)C1=C(c2ccccc2)NC(N)=NC1c1ccc(OCc2ccc(C(=O)OC)cc2)cc1 (centres undefined) | 35.8 µM
C/C(=N/Nc1ccnc2cc(Cl)ccc12)c1ccc(N)cc1 | 73.9 µM
Cc1ccc(-c2csc(NC(=O)C[n+]3cc(-c4ccc(C)cc4)n4c3CCC4)n2)cc1 | 19.3 µM
O=C1NCCCC1C(=O)N/N=C/c1cc([N+](=O)[O-])ccc1O (centres undefined) | 67.2 µM
CC(Nc1nc(N2CCCCC2)nc2ccccc12)c1ccccc1 (centres undefined) | 133 µM
C#CCOCCOCCOCCNc1nc(N2CCN(C(=O)[C@H](Cc3cc4ccccc4[nH]3)n3cc([C@@H](N)C(C)CC)nn3)CC2)nc(N2CCN(C(=O)[C@H](Cc3cc4ccccc4[nH]3)n3cc([C@@H](N)Cc4ccc(O)cc4)nn3)CC2)n1 (some centres undefined) | 18.5 µM
CNCCC=C1c2ccccc2CCc2ccccc21 | 117 µM
Cc1ccc(OCc2nnc(NC(=O)c3cccnc3)s2)cc1 | 52 µM
Cc1ccc(-n2c(C)cc(C3N=C(N)Nc4nc5ccccc5n43)c2C)c(C)c1 (centres undefined) | 26.6 µM
O=C(Nc1cccc(C2=NCCN2)c1)Nc1cccc(C2=NCCN2)c1 | 44.8 µM
Oc1c(Cl)cc(CN2CCCCC2)c2cccnc12 | 9.15 µM
COc1ccc(S(=O)(=O)N2CN3CCN(C3)C2)cc1 | 90.8 µM
OCCN1CCN(C2Cc3cc(Cl)ccc3Sc3ccc(Cl)cc32)CC1 (centres undefined) (tested in a mixture with another compound) | 25.9 µM
Oc1c(CN2CCCCC2)cc(Br)c2cccnc12 | 15.7 µM
CCN1/C(=C/C(C)=C/c2sc3ccccc3[n+]2CC)Sc2ccccc21 | 3.1 µM
CCc1ccc(NC(=O)Nc2ccncc2)cc1 | 88.4 µM
[O-][n+]1c2c(c3c4non(O)c4ccc31)CCCC2 | 79.2 µM
CCOc1cc(CNCCCN2CCOCC2)cc(Br)c1OCC(=O)Nc1cccc(C(F)(F)F)c1 | 47.1 µM
CC(=O)NC(=S)NNC(=O)c1ccc(Br)cc1 | 29.4 µM
O=C(CCN1CCN(c2ccccc2)CC1)c1ccc(Cl)cc1 | 70.3 µM

SMILES | IC50
Cc1cc([N+](=O)[O-])cc(/C=N/n2c(C)nc3ccccc3c2=O)c1O | 78.1 µM
Oc1ccc(Cl)cc1Cc1cc(Cl)ccc1O | 27.7 µM
Cc1ccc2oc(=O)c(/C=C(\O)c3ccccc3)nc2c1 | 64.2 µM
O=C(Oc1ccccc1)c1cc2ccccc2o1 | 97 µM
Oc1c(Br)cc(Br)cc1C=NCc1ccccc1 | 40.4 µM
CN1CCN(Cc2cc(COCc3ccccc3)c3cccnc3c2O)CC1 | 36.8 µM
CC(C)(c1ccccc1)c1ccc(OCCCNCCO)cc1 | 29 µM
Oc1cccc(C=NCc2ccccc2)c1O | 73.7 µM
CCCCCCCC(=O)N/N=C/c1ccc([N+](=O)[O-])o1 | 40.2 µM
C[C@H]1COc2c(C3(N)CC3)c(F)cc3c(=O)c(C(=O)O)cn1c23 | 0.9 µM
Nc1cccc2c(=O)c3ccccc3[nH]c12 | 37.6 µM
Oc1c(Br)cc(Br)cc1C=Nc1cccc2ncccc12 | 21.8 µM
CN1CCN(c2cc3c(cc2F)c(=O)c(C(=O)O)cn3CCF)CC1 | 1.06 µM
COc1cc([N+](=O)[O-])cc(/C=N/NC(=O)CSc2ccccn2)c1O | 93.2 µM
c1ccc(CNc2nc(N3CCN(Cc4ccccc4)CC3)nc3ccccc23)cc1 | 25.4 µM
CC(=O)NNC(=S)NC(=O)c1ccccc1 | 18 µM
COc1cc2c(cc1O)[C@H](Cc1ccc(Oc3cc(C[C@@H]4NCCc5cc(OC)c(O)cc54)ccc3O)cc1)NCC2 | 64 µM
O=c1ccc2cc3c([nH]c4ccc(Br)cc43)oc-2c1O | 18.2 µM
Cc1nc2ccccn2c1C(=O)N/N=C/c1ccc([N+](=O)[O-])o1 | 42.6 µM
CN1CCN(C(c2cccc(Cl)c2)c2ccccc2Cl)CC1 (centres undefined) | 68.2 µM
COc1ccc(CNCCc2cccc(F)c2)c2ccccc12 | 61.2 µM
CCOc1ccc(-c2cc(C)[n+](CCN(CC)CC)c(-c3ccc(OCC)cc3)c2)cc1 | 26.4 µM
CO[C@H]1C=CO[C@@]2(C)Oc3c(C)c(O)c4c(O)c(c(C=NN5CCN(C)CC5)c(O)c4c3C2=O)NC(=O)C(C)=CC=C[C@H](C)[C@H](O)[C@@H](C)[C@@H](O)[C@@H](C)[C@H](OC(C)=O)[C@@H]1C | 35.4 µM

SMILES | IC50
NC1=NC[C@@H](Cc2ccc(O)cc2)N1CCc1cc(C(F)(F)F)cc(C(F)(F)F)c1 | 41.7 µM
O=c1[nH]c2ccccc2n2c(=S)[nH]nc12 | 147 µM
COc1cc([N+](=O)[O-])cc(/C=N/NC(=O)C(C)Nc2cccc(C)c2)c1O (centres undefined) | 136 µM
c1ccc2c(c1)OC(CCCN1CCCCC1)c1ccccc1S2 (centres undefined) | 76.4 µM
CNC[C@@H](Cc1ccccc1)NC[C@@H](CC1CCCCC1)NCCCc1ccccc1 | 19.8 µM
COc1cc(C)c(Cc2cnc(N)nc2N)cc1OC | 5.98 µM
CCN(CCC(=O)Nc1ccc(Br)c(C)c1)Cc1ccccc1 | 37.9 µM
Cc1ccc(NC(=O)CNCc2ccccc2)cc1Br | 43 µM
Oc1cccc(Nc2nc(NCC3CCCO3)c3ccccc3n2)c1 (centres undefined) | 38.1 µM
CCn1cc(C(=O)NCC(C)C)c(=O)c2cc(F)c(N3CCN(C)CC3)cc21 | 64.4 µM
Clc1ccc(OCCCNCc2ccccc2)c(Br)c1 | 28.4 µM
O=[N+]([O-])c1ccc(/C=[N+](\[O-])CCO)o1 | 88.9 µM
Nc1c2ccccc2nc2ccccc12 | 39.5 µM
CN(C)CCCN1c2ccccc2CCc2ccc(Cl)cc21 | 70.5 µM
O=C1C=C(Nc2ccccc2O)c2ccccc2C1=O | 101 µM
c1ccc(CN2CCC(N3CCN(Cc4ccc5c(c4)OCO5)CC3)CC2)cc1 | 150 µM
CCN1CCN(CCCNC(=O)c2ccc(/C=C3/Sc4ccccc4N(Cc4ccccc4F)C3=O)cc2)CC1 | 85.4 µM
COc1cc(CNCCc2c[nH]c3ccccc23)ccc1OCc1ccccc1F | 70.8 µM
CCn1cc(C(=O)O)c(=O)c2cc(F)c(N3CCN(C(=S)Nc4ccc(OC)cc4)CC3)cc21 | 35.9 µM
NC1=NC[C@H](c2ccccc2)N1CCc1cc(C(F)(F)F)cc(C(F)(F)F)c1 | 31.1 µM
CC(/C=N/Nc1nc2ccccc2[nH]1)=C\c1ccccc1 | 77.8 µM
NC(N)=N/N=C/c1ccc(OCc2ccc(Cl)cc2Cl)cc1 | 10.3 µM
C/C(=N\NC(=O)c1ccc(Cl)cc1)c1ccccn1 | 28.9 µM

SMILES | IC50
CCOC(=O)c1ccccc1-n1c(C)cc(C2N=C(N)Nc3nc4ccccc4n32)c1C (centres undefined) | 39.4 µM
COc1cc(CNCCO)cc(Cl)c1OCc1ccc(Cl)cc1Cl | 22.4 µM
c1cnc2c(c1)ccc1cccnc12 | 35 µM and 31.3 µM
CCCCCCCSc1cc(OC)c(CCN(C)C)cc1OC | 30.7 µM
CCOc1ccc(Nc2nc(N)c3ccccc3n2)cc1 | 44.4 µM
c1ccc(Nc2ccnc(Nc3ccccc3)n2)cc1 | 38.9 µM
Cc1ccc2c(c1)c1c(n2CC(O)CN2CCC(C)CC2)CCCC1 (centres undefined) | 82.4 µM
O=C(N/N=C/c1c[nH]c2ccccc12)c1ccc(Cl)cc1 | 91.6 µM
Cc1cc(C)n(/N=C/c2cc(Cl)cc(Cl)c2O)c(=O)c1 | 101 µM
CC(=O)Nc1cccc(NC(=O)Nc2ccc(F)cc2F)c1 | 142 µM
Cc1cc(NC2CCCCC2)nc(NCc2ccccc2)n1 | 36.1 µM
CCC[C@H](CN[C@@H](CNC)[C@H](C)CC)NCCc1cc(C(F)(F)F)cc(C(F)(F)F)c1 | 25.1 µM
COc1ccc(OCc2n(CC(=O)OC3CC(C)CCC3C(C)C)c3ccccc3[n+]2C)cc1 (centres undefined) | 36.6 µM
Cc1ccc(C)c(NC(=O)CCC(=O)N/N=C/c2cc([N+](=O)[O-])ccc2O)c1 | 47.1 µM
O=C(CCN1CCN(c2ccccc2)CC1)N/N=C/c1ccc([N+](=O)[O-])o1 | 131 µM
Cc1cc([N+](=O)[O-])nn1CC(=O)N/N=C/c1ccccc1O | 35.3 µM
O=C(CCN1CCN(C(=O)c2ccccc2)CC1)c1ccc(Br)cc1 | 81.6 µM
Cc1ccc(C)c(N/C(N)=N/c2nc(C)cc(C)n2)c1 | 67.4 µM
Clc1ccc(/C=C/c2ncc[nH]2)c(Cl)c1 | 32.5 µM
CNCc1c(OCc2ccccc2F)ccc2ccccc12 | 37.2 µM
CCN(CCNCC(O)COc1ccccc1C(C)C)c1cccc(C)c1 (centres undefined) | 37.7 µM
NC1=NC[C@H](Cc2ccc(O)cc2)N1CCC12CC3CC(CC(C3)C1)C2 | 37.7 µM
COc1cc(Br)cc(/C=N/c2ncn[nH]2)c1O | 61.3 µM

SMILES | IC50
CCCCc1c(O)nc(SCC(=O)Nc2ccc3c(c2)CCC3)[nH]c1=O | 112 µM
NC1CCN(c2c(F)cc3c(=O)c(C(=O)O)cn(C4CC4)c3c2Cl)C1 (centres undefined) | < 0.55 µM
CCn1cnc2cc(NCc3ccc(Br)cc3)ccc21 | 138 µM
COc1ccc(CNCC(O)COc2ccc(C)cc2[N+](=O)[O-])cc1 (centres undefined) | 128 µM
Cc1ccc2cc(CN(CCN(C)C)C(=O)Nc3ccc(Cl)cc3)c(=O)[nH]c2c1 | 50.3 µM
C[C@H]1c2cccc(O)c2C(O)=C2C(=O)C3(O)C(O)=C(C(N)=O)C(=O)[C@@H](N(C)C)[C@@H]3[C@@H](O)[C@@H]21 (some centres undefined) | 0.82 µM
CCN1/C(=C/c2cc[n+](C)cc2)C=Cc2cc(C)ccc21 | 39.4 µM
CN(C)CCCN1c2ccccc2Sc2ccc(C(F)(F)F)cc21 | 103 µM
CN(CCOc1ccc(Cl)cc1)CC(O)c1ccccc1 (centres undefined) | 126 µM
Cc1ccc2sc(N(CCCN(C)C)C(=O)c3ccc(Br)s3)nc2c1C | 36.6 µM
O=C(NC(CO)C(O)c1ccc([N+](=O)[O-])cc1)C(Cl)Cl (centres undefined) | 3.02 µM
CN(C)c1ccc(Nc2nc(N)c3ccccc3n2)cc1 | 77.7 µM
CCCCCCCCNC(C)C(O)c1ccc(SC(C)C)cc1 (centres undefined) | 30.7 µM
CC1(C)N=C(N)N=C(N)N1c1ccc(Oc2ccc(Cl)cc2)c(Cl)c1 | 36.3 µM
Cc1ccc(Cn2c(=N)n(CC(O)COc3ccccc3)c3ccccc32)cc1 (centres undefined) | 37.9 µM
CN1CCN(C(=O)CSc2ccc(Cl)cc2)CC1 | 113 µM
Clc1ccc(Nc2ccc(NCc3ccccc3)nn2)cc1 | 90.7 µM
O=S1(=O)CC=C(CSC(=S)NC2CCS(=O)(=O)C2)C1 (centres undefined) | 39.1 µM
O=C(CN1CC(c2ccccc2)CC1=O)N/N=C/c1cc(Br)ccc1O (centres undefined) | 40.2 µM
c1ccc2c(NCCc3c[nH]c4ccccc34)c3ccccc3nc2c1 | 36.9 µM
O=C(NC(=S)NNC(=O)c1cccs1)c1ccco1 | 52.3 µM
Clc1cccc(/C=N\Nc2nccs2)c1 | 15.8 µM
